Positions count from the first letter of the chain named. Like-named read-outs stand apart in the source and are kept apart here.
Assays:
[1] = biological target: T1, wild-type (WT) ERα (Homo sapiens, UniProt P03372); assay: ERE-luciferase reporter gene assay in Caov2 cells, wild-type receptor; type: cell-based; settings: Caov2, in presence of 1 nM 17-β estradiol, 24 h
T1 construct: expressed in transfected cells; host or cells: Caov2 ovarian carcinoma cells; SKBR3 breast adenocarcinoma cells
T1 sequence (P03372 1-595): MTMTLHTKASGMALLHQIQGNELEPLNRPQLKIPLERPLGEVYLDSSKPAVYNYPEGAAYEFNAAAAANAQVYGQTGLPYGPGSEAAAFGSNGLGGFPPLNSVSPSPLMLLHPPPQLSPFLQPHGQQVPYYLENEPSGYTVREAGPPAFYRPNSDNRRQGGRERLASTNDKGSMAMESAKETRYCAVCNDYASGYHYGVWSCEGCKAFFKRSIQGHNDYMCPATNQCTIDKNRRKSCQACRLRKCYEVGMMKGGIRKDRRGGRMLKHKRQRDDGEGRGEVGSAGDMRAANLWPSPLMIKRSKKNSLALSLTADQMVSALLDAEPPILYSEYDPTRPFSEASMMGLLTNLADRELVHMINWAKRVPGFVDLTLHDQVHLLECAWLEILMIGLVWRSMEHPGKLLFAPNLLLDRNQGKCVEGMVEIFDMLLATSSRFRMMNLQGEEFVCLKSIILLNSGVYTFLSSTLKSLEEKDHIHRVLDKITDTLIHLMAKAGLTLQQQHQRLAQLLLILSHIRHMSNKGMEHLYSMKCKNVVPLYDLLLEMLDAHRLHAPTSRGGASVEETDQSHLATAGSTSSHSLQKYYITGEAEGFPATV
Method: (§1) ExSite mutagenesis was performed using the corresponding primers as summarized in Table 1 below on a pENTR2B ERα WT construct using Pfu ultra taq polymerase. The primers were PNK phosphorylated. Following PCR amplification, the products were digested with DpnI at 37° C. for 1 hr, followed by overnight ligation at 16° C. Ligated products were transformed into DH5α bacterial cells and grown on kanamycin resistant plates. The pENTR clones were verified by sequencing and then swapped into the pcDNA-DEST vector using the Gateway system (Invitrogen) for expression analysis.
(§2) Caov2 ovarian carcinoma cells were grown in RPMI-1640 media (Gibco) supplemented with 8% Fetal Bovine Serum (FBS), Sodium Pyruvate (NaPyr) and non-essential amino acids (NEAA) and passaged every 2-3 days. SKBR3 breast adenocarcinoma cells were grown in DMEM media (Gibco) supplemented with 8% Fetal Bovine Serum (FBS), Sodium Pyruvate (NaPyr) and non-essential amino acids (NEAA) and passaged every 2-3 days. Cells were switched into a phenol-red free RPMI-1640 media supplemented with 8% charcoal stripped fetal bovine serum (CFS), NaPyr, and NEAA one day before plating for experiment. Cells were then plated in 96-well plates for experiment in the phenol red-free media an additional day before transfection.
(§3) The plots include data from five independent experiments and each value is an average of triplicates from each experiment. […]

[2] = biological target: T1, wild-type (WT) ERα; assay: ERE-luciferase reporter gene assay in SKBR3 cells, wild-type receptor; type: cell-based; settings: SKBR3, in presence of 1 nM 17-β estradiol, 24 h
Method: as §1, §2, §3

[3] = biological target: T2, ERα LBD mutant Y537N (Homo sapiens, UniProt P03372, Y537N); assay: ERE-luciferase reporter gene assay in Caov2 cells, Y537N mutant receptor; type: cell-based; settings: Caov2, in presence of 1 nM 17-β estradiol, 24 h
T2 construct: expressed in transfected cells; host or cells: Caov2 ovarian carcinoma cells; SKBR3 breast adenocarcinoma cells
T2 sequence (P03372 1-595 Y537N): T1 sequence (P03372 1-595) with Y537N
Method: as §1, §2, §3

[4] = biological target: T3, ERα LBD mutant Y537C (Homo sapiens, UniProt P03372, Y537C); assay: ERE-luciferase reporter gene assay in SKBR3 cells, Y537C mutant receptor; type: cell-based; settings: SKBR3, in presence of 1 nM 17-β estradiol, 24 h
T3 construct: expressed in transfected cells; host or cells: Caov2 ovarian carcinoma cells; SKBR3 breast adenocarcinoma cells
T3 sequence (P03372 1-595 Y537C): T1 sequence (P03372 1-595) with Y537C
Method: as §1, §2, §3

[5] = Reported Cmax in blood at doses used in prior clinical trials; type: in vivo; settings: human, read-out: Converted (M) Cmax
Text: See Maximov et al., Current ClinicalPharmacology 8(2): 135-155 (2013). […] See Assessment Report for Fablyn, 2009 (EMA). […] See Gardner et al., J Clin Pharmacol 46(1): 52-58 (2006).

[6] = biological target: T3, ERα LBD mutant Y537C; assay: ERE-luciferase reporter gene assay in Caov2 cells, Y537C mutant receptor; type: cell-based; settings: Caov2, in presence of 1 nM 17-β estradiol, 24 h
Method: as §1, §2, §3

[7] = PEARL trial, cited from earlier work

Oc1ccc2c(c1)CC[C@H](c1ccccc1)[C@@H]2c1ccc(OCCN2CCCC2)cc1 [Lasofoxifene]
IC90 [1]: 0.00668 nM
IC90 [2]: 3.3 nM
IC90 [3]: 0.745 nM
IC90 [4]: 5.9 nM
Cmax ([5]; 0.5 mg dose): 9e-09 M
Cmax ([5]; 1 mg dose): 1.55e-08 M
IC90 [6]: 0.204 nM
risk of osteoporosis ([7]; placebo-controlled): reduce the risk of osteoporosis
risk of breast cancer ([7]; post-menopausal women with osteoporosis): reduced the risk of breast cancer in post-menopausal women with osteoporosis
